Measured values reported in US20090227671A1, “Prevention and treatment of atherosclerosis with lithospermate B” (Industry-Academic Cooperation Foundation, priority 2005, published 2009).

Key:
Type in all cases: cell-based, Sprague-Dawley rats
[1] = test system: Akt; experiment: Western blot of Akt phosphorylation in VSMC induced by PDGF-BB; conditions: for decrease of Akt phosphorylation: 30 μM LAB, 20 mM NAC, 40 μM LY294002, 1 h, then PDGF-BB 10 min, FIG. 4C
Experimental: (§1) VSMC was washed with PBS and then dissolved in lysis buffer (25 mM Tris HCl, pH 7.4, 25 mM NaCl, 25 mM NaF, 25 mM sodium pyrophosphate, 1 mM sodium vanadate, 2.5 mM EDTA, 2.5 mM EGTA, 0.05% (wt/vol) Triton X-100, 0.5% (wt/vol) SDS, 0.5% (wt/vol) deoxycholate, 0.5% (wt/vol) Nonidet P-40, […], and 1 mM PMSF). The cells were collected and centrifuged at 13,000 rpm for 15 min and the protein concentration of the resulting supernatant was measured by Bradford assay. The proteins were denatured and were subjected to SDS-PAGE and then blotted onto nitrocellulose membranes. The membranes were placed in 5% (w/v) non-fat dry milk in TBS with 0.1% Tween20 (TBS-T) and then placed at room temperature for 3 hrs. The blots were placed at 4° C. along with anti-ERK1/2 or anti-Akt antibodies (Cell signaling Technologh, Berely. Mass., USA) for 16 hrs. The membranes were washed 4 times with TBS-T, added with anti-rabbit IgG antibody conjugated with horseradish peroxidase (1:2,000 diluent) and then placed at room temperature for 1 hr. The immunoreactive bands detected by ECL reagents were developed by Hyperfilm-ECL (Amersham Life Science, Little Chalfont, UK). The bands showing positive responses were quantitated by densitometry and then compared with that of control.
(§2) In FIG. 1B, it is shown that both U0126 (20 μM) and LY294002 (40 μM) inhibited activities of LDH and MTT induced by PDGF-BB. As a way to investigate the signal transduction pathway involved in VSMC proliferation induced by PDGF-BB, an experiment was conducted to examine whether PDGF-BB activates a relatively lower signal transduction pathway such as ERK1/2 and Akt.

[2] = test system: ERK1/2; experiment: Western blot of ERK1/2 phosphorylation in VSMC induced by PDGF-BB
Experimental: as §1, §2

[3] = test system: vascular smooth muscle cells; experiment: VSMC proliferation induced by PDGF-BB (LDH and MTT assays); conditions: data not shown
From the text: Vascular smooth muscle cells ('VSMC' hereinafter) were separated from thoracic aorta of a Sprague-Dawley weighted about 100-150 g by using collagenase digestion method and then cultured them according to the method disclosed in previous studies [[…], et al. Role of p44/p42 MAP kinase in the age-dependent increase in vascular smooth muscle cell proliferation and neointimal formation. Arterioscler Thromb Vasc Biol. Feb. 1 2003; 23(2):204-210.; Hamaguchi A, Kim S, Izumi Y, et al. Contribution of extracellular signal-regulated kinase to angiotensin II-induced transforming growth factor-beta1 expression in vascular smooth muscle cells. Hypertension. July 1999; 34(1):126-131]. […] The VSMC was treated in a culture medium not containing serum for 24 hrs prior to treatment with PDGF-BB, and the reaction according to the presence or absence of PDGF-BB was analyzed after pretreating with LAB or other reagents. […] The cells were then washed twice with PBS, lysed by using 0.5% Triton-X100, and then the activity of lactate dehydronase (LDH) was measured by using CytoTox-ONETM assay kit (Promega, Madison, Wis., USA) with fluorescence at […]. […]

[4] = test system: intracellular reactive oxygen species; experiment: Intracellular reactive oxygen species in VSMC (DCF fluorescence); conditions: PDGF-BB 10 ng/mL vs control
Experimental: The amount of reactive oxygen species in cells was measured as described in the previous report [Hamaguchi A, Kim S, Izumi Y, et al. Contribution of extracellular signal-regulated kinase to angiotensin II-induced transforming growth factor-beta1 expression in vascular smooth muscle cells. Hypertension. July 1999; 34(1):126-131]. VSMC was cultured in a culture medium without serum for 24 hrs to stop cell proliferation and then pretreated with LAB with various concentrations of 1, 5, 10, 20, 30 μM for 1 hr. The cells were treated with either 10 ng/mL of PDGF-BB for 10 min or with 100 μM H2O2 for 1 min and then cultured in the presence of 5-(and-6)-chloromethyl-2′,7′-dichlorohydrofluorescein diacetate(CM-H2DCF-DA: Molecular Probes Inc., Eurogene, Oreg., USA) in the dark room for 10 min and cultured cells and generation of reactive oxygen species were observed by using fluorescent microscope.
First, the amount of intracellular reactive oxygen species generated by PDGF-BB was measured by using peroxide-sensitive fluorophore DCF. As shown in FIG. 3A (B-1), the amount of intracellular reactive oxygen species generated by PDGF-BB evaluated with DCF fluorescence was 2.7 times greater. […] In this experiment, LAB was treated with PDGF-BB for 10 min. When LAB was pretreated, the amount of DCF fluorescence was decreased as compared to when it was treated only with PDGF-BB [FIG. 3A(A)]. […] Further, LAB decreased the activity of hydrogen peroxide, which increases the generation of intracellular reactive oxygen species, in proportion to its concentration (FIG. 3A(C)).

[5] = test system: vascular smooth muscle cells; experiment: VSMC migration induced by PDGF-BB (modified Boyden chamber); conditions: PDGF-BB 10 ng/mL as chemoattractant, 16 hrs
Experimental: The migration of VSMC with 8 μm of pores was measured by using modified Boyden chamber method [Brown C, Pan X, Hassid A. Nitric oxide and C-type atrial natriuretic peptide stimulate primary aortic smooth muscle cell migration via a cGMP-dependent mechanism: relationship to microfilament dissociation and altered cell morphology. Circ Res. Apr. 2 1999; 84(6):655-667], which utilizes collagen-coated transwell tissue culture inserts consisting of polycarbonate membrane. 3.0×10^6 cells/mL of the above vascular smooth muscle cells were allowed to float in a culture medium without serum, treated with LAB with various concentrations and then cultured at 37° C. for 30 min. Then, the cells were treated with either 0.5 mL DMEM without serum or 0.5 mL DMEM without serum along with PDGF-BB 10 ng/mL and then placed in the lower part of a chamber. 100 μL of the folating materials of the above cells (final 3.0×10^5 cells/well) was added to the upper part of the chamber and cultured at 37° C. for 16 hrs. The cells were then fixed, dyed with hematoxylin, and filters were dried and developed.
It is known that […] plays an important role in proliferation of VSMC as well as development of atherosclerosis. To investigate whether LAB decreases the migration of VSMC induced by PDGF-BB, an experiment was performed as follows by using the aforementioned modified Boyden chamber method.

Compound: O=c1cc(N2CCOCC2)oc2c(-c3ccccc3)cccc12 [LY294002, (2-(4-morpholinyl)-8-phenyl)-4H-1-benzopyran-4-one, reference compound]
- decrease of Akt phosphorylation [1]: 3.5 folds

Compound: CC(=O)N[C@@H](CS)C(=O)O [NAC, N-acetylcysteine, reference compound]
- decrease of Akt phosphorylation [1]: 3.4 folds
- decrease of ERK1/2 phosphorylation ([2]; 30 μM LAB, 20 mM NAC, 1 h, then PDGF-BB 10 min, FIG. 5C): 0.6 fold

Compound: Oc1ccc(-c2nc(-c3ccncc3)c(-c3ccc(F)cc3)[nH]2)cc1 [SB202190, reference compound]
- inhibitory activity against VSMC proliferation induced by PDGF-BB [3]: no distinct inhibitory activity

Compound: PDGF-BB: platelet-derived growth factor (Sigma-Aldrich), stimulus of VSMC proliferation and migration [reference compound]
- amount of intracellular reactive oxygen species (DCF fluorescence), increase [4]: 2.7 times
- increase of VSMC migration [5]: about 60%
- increase of Akt activity ([1]; treated with PDGF-BB 10 ng/mL, FIG. 4A): 7 folds
- increase of ERK1/2 activity ([2]; treated with PDGF-BB 10 ng/mL, FIG. 5A): 11 folds
